Test results as given in the SangsterLogP compilation.

Row | Structure (SMILES) | logP
1 | CC(C)CCC/C=C/c1nc(CCOc2ccc3c(c2)CN(C(=O)/C=C/c2cccs2)C(C(=O)O)C3)co1 (configuration not stated) | 3.95
2 | C/C=C/C=C/C(=O)N1Cc2cc(OCCc3nc(/C=C/C(C)(C)C)oc3C)ccc2C[C@H]1C(=O)O | 3.1
3 | CCCCCC(=O)N1Cc2cc(OCCc3coc(/C=C/CCCC(C)C)n3)ccc2CC1C(=O)O (configuration not stated) | 4.34
4 | C/C=C/C=C/C(=O)N1Cc2cc(OCCc3nc(/C=C/C(CC)CC)oc3C)ccc2C[C@H]1C(=O)O | 3.68
5 | CCC(O)/C=C/C(=O)N1Cc2cc(OCCc3coc(/C=C/CCCC(C)C)n3)ccc2CC1C(=O)O (configuration not stated) | 3.33
6 | CCOCCC(=O)N1Cc2cc(OCCc3coc(/C=C/CCCC(C)C)n3)ccc2CC1C(=O)O (configuration not stated) | 3.48
7 | Cc1oc(/C=C/CCC(C)C)nc1CCOc1ccc2c(c1)CN(C(=O)/C=C/c1ccco1)[C@H](C(=O)O)C2 | 3.76
8 | CC(C)=C/C=C/C(=O)N1Cc2cc(OCCc3coc(/C=C/CCCC(C)C)n3)ccc2CC1C(=O)O (configuration not stated) | 4.09
9 | C/C=C/C=C/C(=O)N1Cc2cc(OCCc3nc(CCCCC(C)C)oc3C)ccc2C[C@H]1C(=O)O | 3.79
10 | C/C=C/C=C/C(=O)N1Cc2cc(OCCc3nc(/C=C/CC(C)(C)C)oc3C)ccc2C[C@H]1C(=O)O | 3.59
11 | CCO/C=C/C(=O)N1Cc2cc(OCCc3coc(/C=C/CCCC(C)C)n3)ccc2CC1C(=O)O (configuration not stated) | 3.56
12 | CCC/C=C/C(=O)N1Cc2cc(OCCc3coc(/C=C/CCCC(C)C)n3)ccc2CC1C(=O)O (configuration not stated) | 4.04
13 | CC(C)CCC/C=C/c1nc(CCOc2ccc3c(c2)CN(C(=O)/C=C/C2CC2)C(C(=O)O)C3)co1 (configuration not stated) | 3.69
14 | C=CCCCC(=O)N1Cc2cc(OCCc3coc(/C=C/CCCC(C)C)n3)ccc2CC1C(=O)O (configuration not stated) | 4.03
15 | CCOC/C=C/C(=O)N1Cc2cc(OCCc3coc(/C=C/CCCC(C)C)n3)ccc2CC1C(=O)O (configuration not stated) | 3.52
16 | C/C=C/C=C/C(=O)N1Cc2cc(OCCc3nc(/C(C)=C/CC)oc3C)ccc2C[C@H]1C(=O)O | 2.88
17 | C=CCCC(=O)N1Cc2cc(OCCc3nc(/C=C/CCC(C)C)oc3C)ccc2C[C@H]1C(=O)O | 3.76
18 | Cc1oc(/C=C/CCC(C)C)nc1CCOc1ccc2c(c1)CN(C(=O)/C=C/C=C/CO)C(C(=O)O)C2 (configuration not stated) | 3.09
19 | C/C=C/C=C/C(=O)N1Cc2cc(OCCc3nc(/C=C/C(C)C)oc3C)ccc2C[C@H]1C(=O)O | 2.77
20 | CC(C)CCC/C=C/c1nc(CCOc2ccc3c(c2)CN(C(=O)/C=C/c2ccco2)C(C(=O)O)C3)co1 (configuration not stated) | 3.76
21 | C/C=C/C=C/C(=O)N1Cc2cc(OCCc3nc(/C=C/C(C)CCC)oc3C)ccc2C[C@H]1C(=O)O (some centres not stated) | 3.84
22 | C/C=C/C=C/C(=O)N1Cc2cc(OCCc3nc(/C(C)=C/CCC(C)C)oc3C)ccc2C[C@H]1C(=O)O | 4.29
23 | C/C=C/C=C/C(=O)N1Cc2cc(OCCc3nc(/C(=C/C)CC)oc3C)ccc2C[C@H]1C(=O)O | 2.75
24 | C/C=C/C=C/C(=O)N1Cc2cc(OCCc3nc(/C=C/C(C)(C)CC)oc3C)ccc2C[C@H]1C(=O)O | 3.52
25 | C/C=C/C=C/C(=O)N1Cc2cc(OCCc3nc(C=CCC(C)C)oc3C)ccc2CC1C(=O)O (configuration not stated) | 3.23
26 | C/C=C/C=C/C(=O)N1Cc2cc(OCCc3nc(/C=C/CCC(C)C)oc3C)ccc2C[C@H]1C(=O)O | 3.81
27 | C/C=C/C=C/C(=O)N1Cc2cc(OCCc3nc(/C=C/CCCC(C)C)oc3C)ccc2CC1C(=O)O (configuration not stated) | 4.1
